Assay results reported in patent US20250099434A1, “METHODS OF TREATING AMYLOID RELATED BRAIN DISORDERS USING NOVEL COMPOUNDS AND ANTIBODIES” (T3D Therapeutics, Inc., priority 2022, published 2025).
Several values for one entry are separate records, joined by “and”; a condition that tells them apart may be missing. Equal values may be shown once. Read-outs that look alike come from different tables or passages of the source.

What was measured:
human PPARγ = target: T1, human PPARγ (Homo sapiens, UniProt P37231); experiment: Human PPAR activation, transient transfection in CV-1 cells (gamma subtype); assay type: cell-based
T1 construct: expressed in transfected cells; host or cells: CV-1 cells
T1 sequence (P37231 1-505): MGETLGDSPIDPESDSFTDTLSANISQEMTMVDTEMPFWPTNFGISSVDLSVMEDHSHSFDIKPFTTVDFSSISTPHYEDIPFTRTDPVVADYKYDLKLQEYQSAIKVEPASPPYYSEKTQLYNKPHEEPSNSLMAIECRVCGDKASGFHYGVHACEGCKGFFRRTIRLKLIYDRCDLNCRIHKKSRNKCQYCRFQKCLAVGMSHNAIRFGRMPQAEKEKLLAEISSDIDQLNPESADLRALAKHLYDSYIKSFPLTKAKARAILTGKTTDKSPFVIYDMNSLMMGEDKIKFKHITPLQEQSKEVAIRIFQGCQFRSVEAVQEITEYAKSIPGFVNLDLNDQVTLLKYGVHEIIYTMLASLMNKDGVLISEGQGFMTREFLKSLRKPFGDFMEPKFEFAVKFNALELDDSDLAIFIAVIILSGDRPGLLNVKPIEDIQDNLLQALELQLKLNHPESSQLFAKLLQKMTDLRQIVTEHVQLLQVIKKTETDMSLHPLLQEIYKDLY
Text: PPAR receptor agonist activity may be determined by conventional screening methods known to the skilled in the art. For example, methods described in U.S. Patent Application Publication No. 2007/0054907, 2008/0262047 and U.S. Pat. No. 7,314,879, which are incorporated by reference in their entireties.
The table summarize the results of studies performed in transfected CV-1 cells with three different lots of Compound of Example 11. […].

human PPARδ = target: T2, human PPARδ (Homo sapiens, UniProt Q03181); experiment: Human PPAR activation, transient transfection in CV-1 cells (δ subtype); assay type: cell-based
T2 construct: expressed in transfected cells; host or cells: CV-1 cells
T2 sequence (Q03181 1-441): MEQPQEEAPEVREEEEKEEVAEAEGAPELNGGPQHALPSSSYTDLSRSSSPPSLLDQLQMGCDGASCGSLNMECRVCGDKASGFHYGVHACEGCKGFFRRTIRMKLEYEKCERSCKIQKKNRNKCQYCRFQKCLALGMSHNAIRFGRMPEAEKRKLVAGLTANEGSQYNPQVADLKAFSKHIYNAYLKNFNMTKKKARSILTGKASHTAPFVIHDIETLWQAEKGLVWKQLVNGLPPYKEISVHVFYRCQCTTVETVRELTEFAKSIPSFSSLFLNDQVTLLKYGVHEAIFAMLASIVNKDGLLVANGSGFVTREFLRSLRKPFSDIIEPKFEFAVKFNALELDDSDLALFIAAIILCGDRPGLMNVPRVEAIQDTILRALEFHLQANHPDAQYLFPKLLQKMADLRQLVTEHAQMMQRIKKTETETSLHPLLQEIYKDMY

[1] = system: glucose metabolism in the brain
[2] = time point 1.0, individual rats
[3] = time point 3.0, individual rats
[4] = time point 5.0, individual rats
[5] = time point 7.0, individual rats
[6] = time point 12.0, individual rats
[7] = 3 mg, White Matter as Reference Region
[8] = 3 mg, Whole Brain as Reference Region
[9] = 10 mg, White Matter as Reference Region
[10] = 10 mg, Whole Brain as Reference Region
[11] = 30 mg, White Matter as Reference Region
[12] = 30 mg, Whole Brain as Reference Region
[13] = 90 mg, White Matter as Reference Region
[14] = 90 mg, Whole Brain as Reference Region

Compound: CCc1oc(-c2ccc(OC)cc2)nc1CCOc1ccc2c(c1)CC[C@H]2CC(=O)[O-].[Na+] [Example 11, Sodium (S)-2-(5-(2-(5-ethyl-2-(4-methoxyphenyl)oxazol-4-yl)ethoxy)-2,3-dihydro-1H-inden-1-yl)acetate]
- Peak effect PPARγ (human PPARγ): 29.49
- Peak effect PPARδ (human PPARδ): 17.68
- greater potency in activating human PPARδ subtype over human PPARγ subtype (human PPARδ): 15 fold
- B/P Ratio [2]: 0.22 and 0.36 and 0.51
- Brain Tissue Cone. [2]: 226 ng/g and 161 ng/g and 101 ng/g
- Average (B/P Ratio) (time point 1.0, three rats): 0.361
- B/P Ratio [3]: 0.26 and 0.21 and 0.19
- Brain Tissue Cone. [3]: 234 ng/g and 269 ng/g and 274 ng/g
- Plasma Conc. [3]: 1270 ng/mL and 1430 ng/mL
- Average (B/P Ratio) (time point 3.0, three rats): 0.220
- B/P Ratio [4]: 0.17 and 0.18 and 0.16
- Brain Tissue Cone. [4]: 208 ng/g and 247 ng/g and 333 ng/g
- Plasma Conc. [4]: 1260 ng/mL and 1340 ng/mL and 2040 ng/mL
- Average (B/P Ratio) (time point 5.0, three rats): 0.171
- B/P Ratio [5]: 0.16 and 0.35 and 0.47
- Brain Tissue Cone. [5]: 203 ng/g and 216 ng/g
- Average (B/P Ratio) (time point 7.0, three rats): 0.328
- B/P Ratio [6]: 0.30 and 0.44 and 0.31
- Brain Tissue Cone. [6]: 104 ng/g and 114 ng/g and 117 ng/g
- Plasma Conc. [6]: 345 ng/mL and 259 ng/mL and 377 ng/mL
- Average (B/P Ratio) (time point 12.0, three rats): 0.350
- Δ R CMRgI (EOT-BL) Sensory Motor Cortex Left, Ave [1, 7]: −0.0005
- Δ R CMRgI (EOT-BL) Sensory Motor Cortex Right, Ave [1, 7]: −0.0151
- Δ R CMRgI (EOT-BL) Visual Cortex Left, Ave [1, 7]: −0.0219
- Δ R CMRgI (EOT-BL) Visual Cortex Right, Ave [1, 7]: −0.0272
- Δ R CMRgI (EOT-BL) Sensory Motor Cortex Left, Ave [1, 8]: 0.0152
- Δ R CMRgI (EOT-BL) Sensory Motor Cortex Right, Ave [1, 8]: −0.0037
- Δ R CMRgI (EOT-BL) Visual Cortex Left, Ave [1, 8]: −0.0196
- Δ R CMRgI (EOT-BL) Visual Cortex Right, Ave [1, 8]: −0.0269
- spatial extent of ROSDs with positive ΔR CMRgl (EOT-BL) relative to Whole Brain ([1]; 10 mg): 70 voxels
- Δ R CMRgI (EOT-BL) Sensory Motor Cortex Left, Ave [1, 9]: 0.0005
- Δ R CMRgI (EOT-BL) Sensory Motor Cortex Right, Ave [1, 9]: −0.0005
- Δ R CMRgI (EOT-BL) Visual Cortex Left, Ave [1, 9]: −0.0014
- Δ R CMRgI (EOT-BL) Visual Cortex Right, Ave [1, 9]: −0.0033
- Δ R CMRgI (EOT-BL) Sensory Motor Cortex Left, Ave [1, 10]: 0.0008
- Δ R CMRgI (EOT-BL) Sensory Motor Cortex Right, Ave [1, 10]: 0.0003
- Δ R CMRgI (EOT-BL) Visual Cortex Left, Ave [1, 10]: −0.0032
- Δ R CMRgI (EOT-BL) Visual Cortex Right, Ave [1, 10]: −0.0053
- Δ R CMRgI (EOT-BL) Sensory Motor Cortex Left, Ave [1, 11]: −0.0040
- Δ R CMRgI (EOT-BL) Sensory Motor Cortex Right, Ave [1, 11]: −0.0229
- Δ R CMRgI (EOT-BL) Visual Cortex Left, Ave [1, 11]: −0.0314
- Δ R CMRgI (EOT-BL) Visual Cortex Right, Ave [1, 11]: −0.0408
- Δ R CMRgI (EOT-BL) Sensory Motor Cortex Left, Ave [1, 12]: 0.0213
- Δ R CMRgI (EOT-BL) Sensory Motor Cortex Right, Ave [1, 12]: −0.0040
- Δ R CMRgI (EOT-BL) Visual Cortex Left, Ave [1, 12]: −0.0158
- Δ R CMRgI (EOT-BL) Visual Cortex Right, Ave [1, 12]: −0.0271
- Δ R CMRgI (EOT-BL) Sensory Motor Cortex Left, Ave [1, 13]: −0.0076
- Δ R CMRgI (EOT-BL) Sensory Motor Cortex Right, Ave [1, 13]: −0.0078
- Δ R CMRgI (EOT-BL) Visual Cortex Left, Ave [1, 13]: −0.0775
- Δ R CMRgI (EOT-BL) Visual Cortex Right, Ave [1, 13]: −0.0730
- Δ R CMRgI (EOT-BL) Sensory Motor Cortex Left, Ave [1, 14]: 0.0244
- Δ R CMRgI (EOT-BL) Sensory Motor Cortex Right, Ave [1, 14]: 0.0251
- Δ R CMRgI (EOT-BL) Visual Cortex Left, Ave [1, 14]: −0.0685
- Δ R CMRgI (EOT-BL) Visual Cortex Right, Ave [1, 14]: −0.0604
- dose dependence of effect on FDG-PET outcomes ([1]; 3 to 90 mg): dose-dependent
- effect on glucose metabolism in the brain ([1]; two week treatment): altered the glucose metabolism in the brain
- Blood Brain Barrier penetration inferred from FDG-PET ([1]; voxel-wise (SPM) analysis, even at the lowest 3 mg): penetrates the Blood Brain Barrier (BBB)
